# Patent US20130331326A1, “METHOD OF INDUCING HEMATOPOIETIC RECONSTRUCTION” (DUKE UNIVERSITY, priority 2011, published 2013)
# Entries after “also recorded” stand apart in the source; their conditions may differ.
# Assays:
# BM KSL cells [1] = assay: Cell cycle analysis (Ki67/7-AAD) of irradiated BM KSL cells; type: cell-based, mouse
# Description: (§1) Cell apoptosis and necrosis were analyzed by flow cytometry according to manufacturer's protocols with Annexin V-FITC and 7-AAD staining (BD, San Jose, Calif.). […] Cells were fixed and permeabilized with Fix Buffer I and Perm Buffer III (BD), and then stained with mouse anti-phospho-AKT-S473 PE (BD) or isotype control. Cell cycle analysis was performed by flow cytometric analysis modified from previous reports (Jordan et al, Exp. Hematol. 24:1347-1355 (1996), Chute et al, Hum. Gene Ther. 11:2515-2528 (2000), Sungartz et al, Blood 119:1308-1309 (2012)). Briefly, cells were fixed and permeabilized with 0.25% Saponin (Calbiochem, La Jolla, Calif.), 2.5% paraformaldehyde, 2% FBS in 1×PBS, and then labeled with Ki67-FITC and 7-AAD (BD). BM lin^− cells from VavCre;EGFR^+/+ or VavCre;EGER^fl/fl were cultured with TSF or TSF+10 μM erlotinib, or TSF following 300 cGy for 72 hours, and then collected for total cell counts and CFCs analysis.
# C57B16 mice = assay: Survival of C57B16 mice after 700 cGy TBI; type: in vivo, mouse; details: 0.5 ug/G EGF daily x 7 days from +2 hours, saline controls 57%
# BM 34-KSL cells = assay: Competitive transplantation of the progeny of cultured BM 34-KSL cells; type: cell-based, mouse; details: progeny of 300 cGy-irradiated, EGF-treated BM 34-KSL cells; 8 weeks post-transplant
# BM KSL cells [2] = assay: Culture of non-irradiated BM KSL cells with TSF with and without EGF; type: cell-based, mouse; details: TSF + 20 ng/ml EGF, 7 days, vs cytokines alone
# EGFR = assay: Phosphorylation of EGFR-Y845 in BM KSL cells in culture; type: cell-based, mouse; details: wild type BM KSL cells treated with EGF in vitro (20 ng/mL, 15 minutes)
# BM KSL cells [3] = assay: Culture of 300 cGy-irradiated BM KSL cells with BM ECs or TSF cytokines; CFC and CFU-S12 recovery; type: cell-based, mouse
# Description: BM cells were collected into PBS (Cellgro, Manassas, Va.) with 10% fetal bovine serum (Hyclone, Logan, Utah) and 1% penicillin/streptomycin (GIBCO, Grand Island, N.Y.). Viable BM cells were quantified using Trypan Blue Stain (Lonza, Basel, Switzerland) to exclude apoptotic and dead cells. Cells were then incubated with anti-c-kit, anti-Sca-1, anti-lineage cocktail, anti-CD41, anti-CD48, and anti-CD150 antibodies (Biolegend and eBiosciences, San Diego, Calif.; BD, San Jose, Calif.) to measure ckit^+sca-1^+lin^− (KSL) progenitor cells or CD150′CD41^−CD48^−KSL (SLAM/KSL) as previously described (Kiel et al, Cell 121:1109-1121 (2005)). Colony forming cells (CFCs) and CFU-S12 assays were also performed to measure functional hematopoietic stem/progenitor cell content. For CFCs, either whole BM or cultured lineage−cells, or KSL cells were plated onto methylcellulose (StemCell Technologies, Vancouver, BC, Canada), and colonies were scored on day 14. 1×10^5 BM or 2×10^5 cells were collected from donor mice and injected via tail vein into recipient C57B16 mice that had been given 950 cGy TBI. At day +12 post-injection, spleens from recipient mice were harvested and stained with Bouin's fixative solution (Ricca Chemical Company, Arlington, Tex.), and colonies were counted as previously described (Till and MeRadiat. Res. 14:213-222 (1961)). Complete blood counts were performed on a HemaVet 950 (Drew Scientific, Dallas, Tex.). […]
# BM KSL cells [4] = assay: Annexin V apoptosis assay of irradiated BM KSL cells in culture; type: cell-based, mouse; details: 72 hours, vs cytokines alone
# Description: as §1
# DNA-PK = assay: Phosphorylation of DNA-PK in irradiated BM lin- cells; type: cell-based, mouse; details: 300 cGy BM lin- cells, EGF 20 ng/ml, vs cytokines alone
# Description: The phosphorylation of the T2647 domain of DNA-PK was measured using immunofluorescence and flow cytometric analysis. […] Cells were separated onto a glass slide, fixed with 4% paraformaldehyde and permeabilized with 0.3% Triton-X. Cells were stained with rabbit polyclonal DNA-PK or rabbit IgG (Abeam, Cambridge, Mass.) and donkey anti-rabbit Alexafluor 488 antibody and counterstained with Hoechst 33342 (Life Technologies, Grand Island, N.Y.).
# MAPK = assay: Phosphorylation of MAPK in irradiated BM KSL cells; type: cell-based, mouse; details: EGF treatment of irradiated BM KSL cells in culture; data not shown
# Excerpt: EGFR signaling can activate multiple signaling cascades, including the MAPK and PI3k/Akt signaling pathways (Sordella et al, Science 305:1163-1167 (2004), Yang et al, Nature 480:118-122 (2011), Hynes and Lane, Nat. Rev. Cancer 5:341-354 (2005), Wheeler et al, Nat. Rev. Clin. Oncol. 7:493-507 (2010)). […] A further examination was made of whether inhibition of Akt signaling could negate EGF-mediated induction of BM stem/progenitor cell cycling following irradiation.
# [5] = 300 cGy, cytokines + EGF, 72 hours of culture
# [6] = 20 ng/mL EGF added to non-contact FL/+ EC cultures of 300 cGy-irradiated BM KSL cells, vs FL/+ ECs alone
# [7] = EGF added to irradiated BM KSL cells cultured with cytokines (TSF), day 7, vs cytokines alone
substance,measurement,setting,value
EGF: epidermal growth factor; recombinant EGF (R&D Systems),cycling of BM KSL cells from Tie2Cre;Bak1-/-;BaxFl/- mice,"BM KSL cells [1]; 300 cGy in vitro, TSF + 20 ng/ml EGF, 72 hours, vs TSF",significantly decreased G0 cells and increased G2/S/M cells; also recorded: significantly increased the cycling
same,KSL cells in G1,BM KSL cells [1]; [5],51%
same,KSL cells in G2/S/M phase,BM KSL cells [1]; [5],31%
same,KSL cells remaining in G0,BM KSL cells [1]; [5],17%
same,mice alive and well through day +30,C57B16 mice,93%
same,"donor hematopoietic cell repopulation, higher vs cytokine cultures alone",BM 34-KSL cells,3 fold
same,expansion of BM KSL cells and CFU-S12,BM KSL cells [2],increased significantly; also recorded: significant expansion
same,EGFR signaling as measured by EGFR phosphorylation,EGFR,induced EGFR signaling
same,increase in CFCs recovered at day 7,BM KSL cells [3]; [6],2.2 fold
same,increase in CFU-S12 recovered at day 7,BM KSL cells [3]; [6],2.6 fold
same,recovery of CFCs in culture,"BM KSL cells [3]; 300 cGy BM KSL cells from Tie2Cre;Bak1-/-;BaxFl/- mice, TSF + 20 ng/ml EGF, 72 hours, vs cytokines alone",increased CFCs; also recorded: increase in recovery of CFCs
same,increase in CFCs,BM KSL cells [3]; [7],3 fold
same,increase in CFU-S12,BM KSL cells [3]; [7],4 fold
same,increase in BM CFC recovery,"BM KSL cells [3]; EGF treatment, 72 hours following radiation exposure, vs TSF alone",3 fold
same,"regeneration of BM stem and progenitor cells (CFC, CFUS12)","BM KSL cells [3]; Example 1, 300 cGy KSL cells, 7 days with BaxFl+ endothelial cells with and without EGF",induced regeneration of BM stem and progenitor cells
same,decreased Annexin+ KSL cells,"BM KSL cells [4]; C57B16 BM KSL, 300 cGy, cytokines plus 20 ng/ml EGF",2 fold
same,percentage of Annexin+ cells,"BM KSL cells [4]; irradiated BM KSL cells from Tie2Cre;Bak1-/-;BaxFl/- mice, EGF",further decreased
same,phospho-DNA-PK levels by immunofluorescence staining,DNA-PK; 15 minutes,increased phospho-DNA-PK; also recorded: significant increase
same,phospho-DNA-PK levels by FACS analysis,DNA-PK; 1 hour,increased phospho-DNA-PK; also recorded: significant increase
same,phosphorylation of MAPK,MAPK,did not alter the phosphorylation of MAPK
